Usually EC50 stands for the midpoint of the concentration-response curve.

This test deals with hGPR40 (Homo sapiens, UniProt O14842). Briefly: FDSS-based intracellular calcium assay. Particulars: intracellular Ca2+ response, cells expressing GPR40. Also on record: 3xFLAG; expressed in transfected cells. Type of test: cell-based. The method, then: FDSS-Based Intracellular Calcium Assay
Compounds are dissolved in DMSO and diluted to desired concentrations with assay buffer and added to the cells as 3× solution (20 μL per well). Run fluorescence/luminescence reader FDSS (Hamamatsu) to read intracellular Ca^2+ response.
Background: A change in cytosolic calcium serves as a functional read-out for many receptors and channels.

Molecules are shown by their SMILES.

Sequence of hGPR40 (O14842 whole entry): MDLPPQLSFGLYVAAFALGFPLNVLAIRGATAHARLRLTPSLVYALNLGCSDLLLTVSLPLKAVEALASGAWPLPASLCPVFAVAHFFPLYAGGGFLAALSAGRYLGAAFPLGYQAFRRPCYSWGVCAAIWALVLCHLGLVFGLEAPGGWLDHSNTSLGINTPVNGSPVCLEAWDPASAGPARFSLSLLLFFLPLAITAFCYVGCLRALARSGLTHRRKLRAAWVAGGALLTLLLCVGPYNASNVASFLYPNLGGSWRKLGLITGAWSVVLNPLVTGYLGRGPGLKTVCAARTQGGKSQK

Take `CCOc1ccc(F)c(N2CC[C@H](Oc3ccc(N4N=C(C(F)(F)F)[C@@H](C)[C@@H]4CC(=O)O)cc3)[C@@H](C)C2)c1` [Example 30, 2-((4S,5S)-1-(4-(((3S,4S)-1-(5-Ethoxy-2-fluorophenyl)-3-methylpiperidin-4-yl)oxy)phenyl)-4-methyl-3-(trifluoromethyl)-4,5-dihydro-1H-pyrazol-5-yl)acetic acid]: the EC50 turned out to be 1.2 µM. Then `CCOc1ccc(F)c(N2CCC(Oc3ccc(N4N=C(C(F)(F)F)[C@@H](C)[C@@H]4CC(=O)O)cc3)CC2)c1` [Example 32, 2-((4S,5S)-1-(4-((1-(5-Ethoxy-2-fluorophenyl)piperidin-4-yl)oxy)phenyl)-4-methyl-3-(trifluoromethyl)-4,5-dihydro-1H-pyrazol-5-yl)acetic acid], with 0.217 µM. `COc1ccc(Cl)c(N2CCC(Oc3ccc(N4N=C(C(F)(F)F)[C@@H](C)[C@@H]4CC(=O)O)cc3)CC2)c1` [Example 33, 2-((4S,5S)-1-(4-((1-(2-Chloro-5-methoxyphenyl)piperidin-4-yl)oxy)phenyl)-4-methyl-3-(trifluoromethyl)-4,5-dihydro-1H-pyrazol-5-yl)acetic acid]: the concentration for a half-maximal effect (EC50) is 0.103 µM. In the case of `C[C@@H]1C(C(F)(F)F)=NN(c2ccc(OC3CCN(c4cc(Cl)ccc4Cl)CC3)cc2)[C@H]1CC(=O)O` [Example 35, 2-((4S,5S)-1-(4-((1-(2,5-Dichlorophenyl)piperidin-4-yl)oxy)phenyl)-4-methyl-3-(trifluoromethyl)-4,5-dihydro-1H-pyrazol-5-yl)acetic acid], the EC50 stood at 0.254 µM.

Take `C[C@@H]1C(C(F)(F)F)=NN(c2ccc(OC3CCN(c4ccccc4Cl)CC3)cc2)[C@H]1CC(=O)O` [Example 37, 2-((4S,5S)-1-(4-((1-(2-Chlorophenyl)piperidin-4-yl)oxy)phenyl)-4-methyl-3-(trifluoromethyl)-4,5-dihydro-1H-pyrazol-5-yl)acetic acid]: the EC50 came out at 0.448 µM. Then `C[C@@H]1C(C(F)(F)F)=NN(c2ccc(OC3CCN(c4cc(F)ccc4F)CC3)cc2)[C@H]1CC(=O)O` [Example 38, 2-((4S,5S)-1-(4-((1-(2,5-Difluorophenyl)piperidin-4-yl)oxy)phenyl)-4-methyl-3-(trifluoromethyl)-4,5-dihydro-1H-pyrazol-5-yl)acetic acid], with 0.475 µM; and `Cc1ccccc1N1CCC(Oc2ccc(N3N=C(C(F)(F)F)[C@@H](C)[C@@H]3CC(=O)O)cc2)CC1` [Example 39, 2-((4S,5S)-4-Methyl-1-(4-((1-(o-tolyl)piperidin-4-yl)oxy)phenyl)-3-(trifluoromethyl)-4,5-dihydro-1H-pyrazol-5-yl)acetic acid], with 0.498 µM. Then `C[C@@H]1C(C(F)(F)F)=NN(c2ccc(OC3CCN(c4ncccc4F)CC3)cc2)[C@H]1CC(=O)O` [Example 41, 2-((4S,5S)-1-(4-((1-(3-Fluoropyridin-2-yl)piperidin-4-yl)oxy)phenyl)-4-methyl-3-(trifluoromethyl)-4,5-dihydro-1H-pyrazol-5-yl)acetic acid], with 0.628 µM; and `Cc1cccc(F)c1N1CCC(Oc2ccc(N3N=C(C(F)(F)F)[C@@H](C)[C@@H]3CC(=O)O)cc2)CC1` [Example 42, 2-((4S,5S)-1-(4-((1-(2-Fluoro-6-methylphenyl)piperidin-4-yl)oxy)phenyl)-4-methyl-3-(trifluoromethyl)-4,5-dihydro-1H-pyrazol-5-yl)acetic acid], with 0.796 µM; and `Cc1ccc(C)c(N2CCC(Oc3ccc(N4N=C(C(F)(F)F)[C@@H](C)[C@@H]4CC(=O)O)cc3)CC2)c1` [Example 43, 2-((4S,5S)-1-(4-((1-(2,5-Dimethylphenyl)piperidin-4-yl)oxy)phenyl)-4-methyl-3-(trifluoromethyl)-4,5-dihydro-1H-pyrazol-5-yl)acetic acid], with 1.07 µM. Then `Cc1cccc(C)c1N1CCC(Oc2ccc(N3N=C(C(F)(F)F)[C@@H](C)[C@@H]3CC(=O)O)cc2)CC1` [Example 44, 2-((4S,5S)-1-(4-((1-(2,6-Dimethylphenyl)piperidin-4-yl)oxy)phenyl)-4-methyl-3-(trifluoromethyl)-4,5-dihydro-1H-pyrazol-5-yl)acetic acid], with 1.34 µM; and `COc1ccnc(N2CCC(Oc3ccc(N4N=C(C(F)(F)F)[C@@H](C)[C@@H]4CC(=O)O)cc3)CC2)c1` [Example 45, 2-((4S,5S)-1-(4-((1-(4-Methoxypyridin-2-yl)piperidin-4-yl)oxy)phenyl)-4-methyl-3-(trifluoromethyl)-4,5-dihydro-1H-pyrazol-5-yl)acetic acid], with 1.52 µM; and `COc1ccccc1N1CCC(Oc2ccc(N3N=C(C(F)(F)F)[C@@H](C)[C@@H]3CC(=O)O)cc2)CC1` [Example 46, 2-((4S,5S)-1-(4-((1-(2-Methoxyphenyl)piperidin-4-yl)oxy)phenyl)-4-methyl-3-(trifluoromethyl)-4,5-dihydro-1H-pyrazol-5-yl)acetic acid], with 1.7 µM. As to `COc1cc(N2CCC(Oc3ccc(N4N=C(C(F)(F)F)[C@@H](C)[C@@H]4CC(=O)O)cc3)CC2)ccn1` [Example 47, 2-((4S,5S)-1-(4-((1-(2-Methoxypyridin-4-yl)piperidin-4-yl)oxy)phenyl)-4-methyl-3-(trifluoromethyl)-4,5-dihydro-1H-pyrazol-5-yl)acetic acid], the EC50 is 1.91 µM.

As for `C[C@@H]1C(C(F)(F)F)=NN(c2ccc(OC3CCN(c4cccc(F)c4)CC3)cc2)[C@H]1CC(=O)O` [Example 48, 2-((4S,5S)-1-(4-((1-(3-Fluorophenyl)piperidin-4-yl)oxy)phenyl)-4-methyl-3-(trifluoromethyl)-4,5-dihydro-1H-pyrazol-5-yl)acetic acid], the concentration giving a half-maximal response (EC50) worked out at 2.27 µM. `C[C@@H]1C(C(F)(F)F)=NN(c2ccc(OC3CCN(c4ccc(F)cc4)CC3)cc2)[C@H]1CC(=O)O` [Example 49, 2-((4S,5S)-1-(4-((1-(4-Fluorophenyl)piperidin-4-yl)oxy)phenyl)-4-methyl-3-(trifluoromethyl)-4,5-dihydro-1H-pyrazol-5-yl)acetic acid]: the EC50 stood at 2.65 µM. Then `C[C@@H]1C(C(F)(F)F)=NN(c2ccc(OC3CCN(c4cccc(Cl)c4)CC3)cc2)[C@H]1CC(=O)O` [Example 50, 2-((4S,5S)-1-(4-((1-(3-Chlorophenyl)piperidin-4-yl)oxy)phenyl)-4-methyl-3-(trifluoromethyl)-4,5-dihydro-1H-pyrazol-5-yl)acetic acid], with 2.84 µM; and `COc1cc(C)c(N2CCC(Oc3ccc(N4N=C(C(F)(F)F)[C@@H](C)[C@@H]4CC(=O)O)cc3)CC2)c(C)c1` [Example 51, 2-((4S,5S)-1-(4-((1-(4-Methoxy-2,6-dimethylphenyl)piperidin-4-yl)oxy)phenyl)-4-methyl-3-(trifluoromethyl)-4,5-dihydro-1H-pyrazol-5-yl)acetic acid], with 3.06 µM; and `COc1ccc(N2CCC(Oc3ccc(N4N=C(C(F)(F)F)[C@@H](C)[C@@H]4CC(=O)O)cc3)CC2)cc1F` [Example 52, 2-((4S,5S)-1-(4-((1-(3-Fluoro-4-methoxyphenyl)piperidin-4-yl)oxy)phenyl)-4-methyl-3-(trifluoromethyl)-4,5-dihydro-1H-pyrazol-5-yl)acetic acid], with 3.62 µM. As for `COc1cccc(F)c1N1CCC(Oc2ccc(N3N=C(C(F)(F)F)[C@@H](C)[C@@H]3CC(=O)O)cc2)CC1` [Example 54, 2-((4S,5S)-1-(4-((1-(2-Fluoro-6-methoxyphenyl)piperidin-4-yl)oxy)phenyl)-4-methyl-3-(trifluoromethyl)-4,5-dihydro-1H-pyrazol-5-yl)acetic acid], the half-maximal effective concentration (EC50) amounted to 5.9 µM. The value for `C[C@@H]1C(C(F)(F)F)=NN(c2ccc(OC3CCN(c4ccc(Cl)cc4)CC3)cc2)[C@H]1CC(=O)O` [Example 56, 2-((4S,5S)-1-(4-((1-(4-Chlorophenyl)piperidin-4-yl)oxy)phenyl)-4-methyl-3-(trifluoromethyl)-4,5-dihydro-1H-pyrazol-5-yl)acetic acid] was 6.27 µM.

Consider `C[C@@H]1C(C(F)(F)F)=NN(c2ccc(OC3CCN(c4ncccc4Cl)CC3)cc2)[C@H]1CC(=O)O` [Example 58, 2-((4S,5S)-1-(4-((1-(3-Chloropyridin-2-yl)piperidin-4-yl)oxy)phenyl)-4-methyl-3-(trifluoromethyl)-4,5-dihydro-1H-pyrazol-5-yl)acetic acid], for which the EC50 came to 0.293 µM. Turning to `C[C@@H]1C(C(F)(F)F)=NN(c2ccc(OC3CCN(c4cc(F)ccc4Cl)CC3)cc2)[C@H]1CC(=O)O` [Example 59, 2-((4S,5S)-1-(4-((1-(2-Chloro-5-fluorophenyl)piperidin-4-yl)oxy)phenyl)-4-methyl-3-(trifluoromethyl)-4,5-dihydro-1H-pyrazol-5-yl)acetic acid], the 50% effective concentration (EC50) is 0.361 µM. Turning to `Cc1ccc(Cl)c(N2CCC(Oc3ccc(N4N=C(C(F)(F)F)[C@@H](C)[C@@H]4CC(=O)O)cc3)CC2)c1` [Example 60, 2-((4S,5S)-1-(4-((1-(2-Chloro-5-methylphenyl)piperidin-4-yl)oxy)phenyl)-4-methyl-3-(trifluoromethyl)-4,5-dihydro-1H-pyrazol-5-yl)acetic acid], the EC50 is 0.364 µM.

With `Cc1ccc(F)c(N2CCC(Oc3ccc(N4N=C(C(F)(F)F)[C@@H](C)[C@@H]4CC(=O)O)cc3)CC2)n1` [Example 61, 2-((4S,5S)-1-(4-((1-(3-Fluoro-6-methylpyridin-2-yl)piperidin-4-yl)oxy)phenyl)-4-methyl-3-(trifluoromethyl)-4,5-dihydro-1H-pyrazol-5-yl)acetic acid], the EC50 turned out to be 0.366 µM. With `C[C@@H]1C(C(F)(F)F)=NN(c2ccc(OC3CCN(c4ccc(F)cc4Cl)CC3)cc2)[C@H]1CC(=O)O` [Example 62, 2-((4S,5S)-1-(4-((1-(2-Chloro-4-fluorophenyl)piperidin-4-yl)oxy)phenyl)-4-methyl-3-(trifluoromethyl)-4,5-dihydro-1H-pyrazol-5-yl)acetic acid], the EC50 was found to be 0.382 µM.

The values above are taken from patent publication US9133163B2, “Dihydropyrazole GPR40 modulators” (Bristol-Myers Squibb Company, priority 2012, dated 2015).
